Measured values: the NIST ThermoML archive (doi:10.1021/je0302001)

Assay: mn = molality of the nth substance listed, in mol/kg
Details: for surface tension liquid-gas: Ring tensiometer; for viscosity / speed of sound: 101.3 kPa, Liquid; for viscosity: Capillary tube (Ostwald / Ubbelohde) method

O=[N+]([O-])[O-].O=[N+]([O-])[O-].[Zn+2] [nitric acid, zinc salt] + O
Details | speed of sound [m/s] | surface tension liquid-gas [mN/m] | viscosity [mPa·s]
283.15 K, m1 = 0.0875 | 1456.4 | – | –
283.15 K, m1 = 0.1329 | 1455.8 | – | 1.368
283.15 K, m1 = 0.2466 | 1463.2 | – | 1.406
283.15 K, m1 = 0.3388 | 1468.8 | – | 1.444
283.15 K, m1 = 0.6111 | 1487.8 | – | 1.559
283.15 K, m1 = 0.6405 | 1491.2 | – | 1.571
283.15 K, m1 = 1.113 | 1526.3 | – | 1.827
283.15 K, m1 = 1.258 | 1540.8 | – | 1.936
283.15 K, m1 = 1.551 | 1564 | – | 2.13
283.15 K, m1 = 1.906 | 1592.7 | – | 2.478
283.15 K, m1 = 2.145 | 1611.1 | – | 2.737
283.15 K, m1 = 2.29 | 1618.7 | – | 2.901
283.15 K, m1 = 2.292 | 1619.7 | – | –
283.15 K, m1 = 2.344 | 1626.1 | – | 2.932
283.15 K, m1 = 2.526 | – | 80.48 | –
283.15 K, m1 = 2.721 | – | 80.75 | –
283.15 K, m1 = 2.91 | 1665.6 | – | 3.705
283.15 K, m1 = 3.426 | – | 82.59 | –
283.15 K, m1 = 3.472 | 1701.3 | – | 4.774
283.15 K, m1 = 4.011 | – | 84.21 | –
283.15 K, m1 = 4.075 | 1733.5 | – | 6.175
283.15 K, m1 = 4.231 | – | 84.55 | –
283.15 K, m1 = 4.817 | 1765.9 | – | 8.641
283.15 K, m1 = 5.133 | – | 86.75 | –
283.15 K, m1 = 5.224 | 1779.8 | – | 10.24
283.15 K, m1 = 5.797 | 1795 | – | –
283.15 K, m1 = 6.245 | – | 88.17 | –
288.15 K, m1 = 0.0875 | 1473.6 | – | –
288.15 K, m1 = 0.1329 | 1473.1 | – | 1.195
288.15 K, m1 = 0.2466 | 1479.5 | – | 1.229
288.15 K, m1 = 0.3388 | 1484.8 | – | 1.265
288.15 K, m1 = 0.6111 | 1503 | – | 1.368
288.15 K, m1 = 0.6405 | 1505.2 | – | 1.38
288.15 K, m1 = 1.113 | 1537.3 | – | 1.609
288.15 K, m1 = 1.258 | 1550.2 | – | 1.705
288.15 K, m1 = 1.551 | 1571.7 | – | 1.875
288.15 K, m1 = 1.906 | 1598.9 | – | 2.178
288.15 K, m1 = 2.145 | 1615 | – | 2.403
288.15 K, m1 = 2.29 | 1625 | – | 2.545
288.15 K, m1 = 2.292 | 1623.1 | – | –
288.15 K, m1 = 2.344 | 1629.2 | – | 2.57
288.15 K, m1 = 2.91 | 1666 | – | 3.231
288.15 K, m1 = 3.472 | 1699.5 | – | 4.124
288.15 K, m1 = 4.075 | 1729.1 | – | 5.31
288.15 K, m1 = 4.817 | 1761.2 | – | 7.338
288.15 K, m1 = 5.224 | 1769.8 | – | 8.634
288.15 K, m1 = 5.797 | 1786.4 | – | –
288.15 K, m1 = 6.34 | 1797.7 | – | –
293.15 K, m1 = 0.2263 | – | 73.17 | –
293.15 K, m1 = 0.334 | – | 73.3 | –
293.15 K, m1 = 0.6198 | – | 74.02 | –
293.15 K, m1 = 0.8228 | – | 74.83 | –
293.15 K, m1 = 1.259 | – | 75.92 | –
293.15 K, m1 = 1.549 | – | 76.32 | –
293.15 K, m1 = 1.818 | – | 76.87 | –
293.15 K, m1 = 2.222 | – | 78.11 | –
293.15 K, m1 = 2.526 | – | 79 | –
293.15 K, m1 = 2.721 | – | 79.59 | –
293.15 K, m1 = 3.426 | – | 81.48 | –
293.15 K, m1 = 4.011 | – | 83.01 | –
293.15 K, m1 = 4.231 | – | 83.39 | –
